Consider 8 compounds from patent publication EP0405273A2, “Method for producing readily soluble crystalline alfa-L-aspartyl-L-phenylalanine methyl ester” (MITSUI TOATSU CHEMICALS, Inc., priority 1989, dated 1991).

Data set [1] is described as follows: Solubilization test (time for complete dissolution in water). The class given is physicochemical. To be noted: 250 mg ground sample in 250 ml pure water at 26 ± 2°C, stirred at 350 to 360 rpm, stirring and standing repeated every 30 seconds. How it is done:
The present invention will be described in detail in the following examples, in which the solubilization test was carried out by the following procedure: Solubilization Test
Into 250 ml of pure water having a temperature of 26 ± 2°C which was being stirred (at 350 to 360 rpm by a magnetic stirrer) was poured 250 mg of a ground α-APM sample. Stirring and standing were repeated every 30 seconds. The time required for the sample to dissolve completely was measured.

Data set [2] in a line: Solubilization of conventionally recrystallized α-APM in water at room temperature. The class given is physicochemical. As to conditions: 250 mg crushed powder in 250 ml of water at room temperature, stirring and standing alternated every 30 seconds. From the text: α-APM purified y conventional recrystallization methods has the disadvantage of poor solubilization (rate of solution) in water.

For data set [3] the following is noted: widely known property stated in the prior art section; cited from earlier work.

Peptide text beside a SMILES is read from it.

`COC(=O)[C@H](Cc1ccccc1)NC(=O)[C@@H](N)CC(=O)O` [Comparative Example, α-L-aspartyl-L-phenylalanien emthyl ester, reference compound] (H-Asp-Phe-OMe): the “time required for the sample to dissolve completely” value (shortened to “time required for the sample”) in data set [1] stood at 25 min.

Turning to `COC(=O)[C@H](Cc1ccccc1)NC(=O)[C@@H](N)CC(=O)O` [Example 1, α-L-aspartyl-L-phenylalanien emthyl ester] (H-Asp-Phe-OMe), the “time required for the sample” value in data set [1] is ≤ 5 min. As for `COC(=O)[C@H](Cc1ccccc1)NC(=O)[C@@H](N)CC(=O)O` [Example 2, α-L-aspartyl-L-phenylalanien emthyl ester] (H-Asp-Phe-OMe), in data set [1], the “time required for the sample” value is ≤ 5 min.

In the case of `COC(=O)[C@H](Cc1ccccc1)NC(=O)[C@@H](N)CC(=O)O` [Example 3, α-L-aspartyl-L-phenylalanien emthyl ester] (H-Asp-Phe-OMe), the “time required for the sample” value in data set [1] was ≤ 5 min. In the case of `COC(=O)[C@H](Cc1ccccc1)NC(=O)[C@@H](N)CC(=O)O` [Example 4, α-L-aspartyl-L-phenylalanien emthyl ester] (H-Asp-Phe-OMe), the “time required for the sample” value in data set [1] is ≤ 5 min. On the same count and under the same terms, the same measure for `COC(=O)[C@H](Cc1ccccc1)NC(=O)[C@@H](N)CC(=O)O` [Example 5, α-L-aspartyl-L-phenylalanien emthyl ester] (H-Asp-Phe-OMe): ≤ 5 min. As for `COC(=O)[C@H](Cc1ccccc1)NC(=O)[C@@H](N)CC(=O)O` [α-APM obtained conventionally by recrystallization from a 50] [α-L-aspartyl-L-phenylalanien emthyl ester] (H-Asp-Phe-OMe), in data set [2], the “time required to dissolve completely” value is “more than 15 minutes”.

As to `COC(=O)[C@H](Cc1ccccc1)NC(=O)[C@@H](N)CC(=O)O` [α-APM, α-L-aspartyl-L-phenylalanien emthyl ester] (H-Asp-Phe-OMe), the degree of sweetness result in data set [3] is on record as “about 200 times the sweetness of sucrose”.
